Assays:
[1] = assay type: in vivo, NSG male mouse; details: for preferential tumor localization compared to lung: single injection
[2] = single injection at 10 mg/kg; non-radioactive version; cited from earlier work
[3] = cited from earlier work
[4] = single i.p. injection 20 nmol per animal, 24 hours
[5] = single i.p. injection 20 nmol, 7 days

CC(=O)N[C@H](CCNC(=O)c1cc(NC(=O)c2cc(NC(=O)c3cc(NC(=O)c4nccn4C)cn3C)cn2C)cn1C)C(=O)Nc1cn(C)c(C(=O)Nc2cc(C(=O)Nc3cc(C(=O)Nc4cc(C(=O)NCCCN(C)CCCN[14C](=O)c5cccc([14C](=O)O)c5)n(C)c4)n(C)c3)n(C)c2)n1 [compound 1, ImPyPyPy-(R)^α-NHAcγ-ImPyPyPy]
mean tumor concentration, multiple injection experiment ([1]; 3 injections days 1, 4, 7, 20 nmol i.p. each, harvest 24 h after last): 3.49 mg/kg
accumulation upon repeated injection in tumor and organs assessed ([1]; 3 injections over 7 days): Some twofold accumulation
enrichment in the tumor over all host tissues probed ([1]; 4 hour time point): some two-fold enrichment
liver concentration lower than that in tumors ([1]; 24 hours, p < 0.01): 29%
preferential tumor localization compared to lung ([1]; 24 hours): up to 12 fold
mean tumor-associated concentration ([1]; LNCaP tumor, single i.p. injection 20 nmol per animal, harvest 24 hours): 1.48 mg/kg
lung concentration [1, 4]: 0.12 mg/kg
kidney tissue level [1, 5]: 0.05 mg/kg
lung tissue level [1, 5]: 0.06 mg/kg
tumor tissue level [1, 5]: 0.45 mg/kg
liver toxicity [2]: not 1

C[14C](=O)N[C@H](CCNC(=O)c1cc(NC(=O)c2cc(NC(=O)c3cc(NC(=O)c4nccn4C)cn3C)cn2C)cn1C)C(=O)Nc1cn(C)c(C(=O)Nc2cc(C(=O)Nc3cc(C(=O)Nc4cc(C(=O)NCCCN(C)CCCNC(=O)c5cccc(C(=O)O)c5)n(C)c4)n(C)c3)n(C)c2)n1 [compound 2]
mean tumor and host tissue values compared with compound 1 ([1]; 24 hours, differently placed C-14 label): within experimental error
preferential tumor localization compared to lung ([1]; 24 hours): up to 12 fold

CN(CCCNC(=O)c1cc(NC(=O)c2cc(NC(=O)c3cc(NC(=O)c4nc(NC(=O)[C@H](N)CCNC(=O)c5cc(NC(=O)c6cc(NC(=O)c7cc(NC(=O)c8nccn8C)cn7C)cn6C)cn5C)cn4C)cn3C)cn2C)cn1C)CCCN[14C](=O)c1cccc([14C](=O)O)c1 [compound 3]
lung levels relative to compound 1 ([1]; 24 hours): almost eightfold higher
tumor-associated levels compared with compound 1 ([1]; 24 hours): within error
host tissue levels compared with compound 1 ([1]; 24 hours, kidney, liver, lung): substantially higher levels
lung concentration [1, 4]: 0.93 mg/kg
liver toxicity [2]: resulted in liver toxicity

COc1cccc2c1C(=O)c1c(O)c3c(c(O)c1C2=O)C[C@@](O)(C(=O)CO)C[C@@H]3O[C@H]1C[C@H](N)[C@H](O)[C@H](C)O1 [doxorubicin]
liver levels higher than MCF7 xenograft levels ([3]; 2 hour timepoint): ~2 fold
tumor localization value ([3]; MCF7 xenograft, i.p. 1.6 mg/kg, up to 24 hours after single injection): about 1 mg/kg

— PMC4134956 (Bioorganic & medicinal chemistry, 2014)
